From publication PMC13439108, “An antibody–drug conjugate active against antibiotic-resistant Neisseria gonorrhoeae” (Proceedings of the National Academy of Sciences of the …, 2026)
Values after ≈ are worked out from the molar mass of the structure shown. Where two headings read alike, the source gives them in different places. Where a SMILES comes first, the peptide text is derived from it. [ ]: non-standard residue; d: D form. The star is where a group is joined. d(aIle) = CC[C@H](C)[C@@H](N)C(=O)O; dDab = NCC[C@@H](N)C(=O)O; Octanoyl = CCCCCCCC(=O)*; Dab = NCC[C@H](N)C(=O)O; AEEA = NCCOCCOCC(=O)O

What was measured:
N. gonorrhoeae FA1090 [1] = conditions: microdilution in FB, ~5 × 10^4 CFU, 24 hr, 37°C, 5% CO2
Protocol: (§1) columns (ThermoFisher scientific). Activated mAb was added to 0.9 mg of Oct-TriA1 analogues (synthesised by ISCA Biochemicals, UK) and incubated at room temperature for 60 min. ADCs were dialysed using slide-A-Lyzer cassette (20K MWCO, ThermoFisher scientific) into PBS overnight at 4 °C […]
(§2) MALDI-TOF MS analysis for determination of intact mass mAbs or ADCs with a concentration of 1 mg/mL were acidified with 1% trifluoroacetic acid and mixed with Super DHB matrix, 1 μl was spotted onto an MTP Anchorchip 600/384. For every mAb, three sample spots were prepared from the same solution using three protocols advised by the manufacturer. MALDI-TOF measurements were performed on a Microflex LRF mass spectrometer, equipped with a 60Hz nitrogen laser at 337nm. Number of peptides conjugated was calculated using the MALDI-TOF molecular weights (MW) [MW = M+] of each ADC, the unconjugated antibody (mAb), and the molecular weights of Oct-TriA1 analogues using the following equation.
(§3) Number of peptides = MW ADC − MW mAb […]
(§4) Determination of Oct-TriA1 Minimum Inhibitory Concentration (MIC)
(§5) N. gonorrhoeae was resuspended in PBS to an ODA600 1.0, and ̴5 × 10^4 CFU added to wells of a microdilution plate containing dilutions of antimicrobials in FB. Plates were incubated for 24 hr at […]
(§6) 37°C, in 5% CO2 then 10 μl aliquots plated onto GCB agar. The MIC was defined as the lowest concentration of an antimicrobial that prevented bacterial growth. […]
(§7) Peptide concentration in ADC preparations
(§8) Peptide concentrations for ADCs were calculated from the antibody concentration, the drug-to-antibody ratio (DAR), and the peptide molecular weight using the following formula:
(§9) Conc. peptide (µg/mL) = Conc. ADC (µg/mL) × DAR x MWpeptide (Da) […]
(§10) Where Conc. ADC is the ADC/ mAb concentration, MWADC is the mAb molecular weight (150 kDa), MWpeptide is the peptide molecular weight and DAR is the average number of peptides per conjugate.
(§11) This formula was used to convert ADC concentrations to peptide concentrations for all assays. […]

[2] = system: N. gonorrhoeae FA1090ΔIgAP; conditions: microdilution in FB, ~5 × 10^4 CFU, 24 hr, 37°C, 5% CO2
Protocol: as §1, §2, §3, §4, §5, §6, §7, §8, §9, §10, §11

[3] = system: N. gonorrhoeae FA1090ΔmtrE; conditions: microdilution in FB, ~5 × 10^4 CFU, 24 hr, 37°C, 5% CO2
Protocol: as §1, §2, §3, §4, §5, §6, §7, §8, §9, §10, §11

N. gonorrhoeae MS11 = conditions: microdilution in FB, ~5 × 10^4 CFU, 24 hr, 37°C, 5% CO2
Protocol: as §1, §2, §3, §4, §5, §6, §7, §8, §9, §10, §11

N. gonorrhoeae MS11ΔIgAP = conditions: microdilution in FB, ~5 × 10^4 CFU, 24 hr, 37°C, 5% CO2
Protocol: as §1, §2, §3, §4, §5, §6, §7, §8, §9, §10, §11

N. gonorrhoeae MS11ΔmtrE = conditions: microdilution in FB, ~5 × 10^4 CFU, 24 hr, 37°C, 5% CO2
Protocol: as §1, §2, §3, §4, §5, §6, §7, §8, §9, §10, §11

N. gonorrhoeae WHO F = conditions: microdilution in FB, ~5 × 10^4 CFU, 24 hr, 37°C, 5% CO2, lowest concentration preventing growth
Protocol: as §1, §2, §3, §4, §5, §6, §7, §8, §9, §10, §11

N. gonorrhoeae WHO G = conditions: microdilution in FB, ~5 × 10^4 CFU, 24 hr, 37°C, 5% CO2
Protocol: as §1, §2, §3, §4, §5, §6, §7, §8, §9, §10, §11

N. gonorrhoeae WHO K = conditions: microdilution in FB, ~5 × 10^4 CFU, 24 hr, 37°C, 5% CO2
Protocol: as §1, §2, §3, §4, §5, §6, §7, §8, §9, §10, §11

N. gonorrhoeae WHO L = conditions: microdilution in FB, ~5 × 10^4 CFU, 24 hr, 37°C, 5% CO2
Protocol: as §1, §2, §3, §4, §5, §6, §7, §8, §9, §10, §11

N. gonorrhoeae WHO M = conditions: microdilution in FB, ~5 × 10^4 CFU, 24 hr, 37°C, 5% CO2
Protocol: as §1, §2, §3, §4, §5, §6, §7, §8, §9, §10, §11

N. gonorrhoeae WHO N = conditions: microdilution in FB, ~5 × 10^4 CFU, 24 hr, 37°C, 5% CO2
Protocol: as §1, §2, §3, §4, §5, §6, §7, §8, §9, §10, §11

N. gonorrhoeae WHO O = conditions: microdilution in FB, ~5 × 10^4 CFU, 24 hr, 37°C, 5% CO2
Protocol: as §1, §2, §3, §4, §5, §6, §7, §8, §9, §10, §11

N. gonorrhoeae WHO P = conditions: microdilution in FB, ~5 × 10^4 CFU, 24 hr, 37°C, 5% CO2
Protocol: as §1, §2, §3, §4, §5, §6, §7, §8, §9, §10, §11

[4] = system: N. gonorrhoeae G97687 (MDR isolate); conditions: G97687, MDR isolate resistant to ESCs and azithromycin, microdilution in FB, 24 hr, 37°C, 5% CO2
Protocol: as §4, §5, §6, §7, §8, §9, §10, §11

human erythrocytes = test: Hemolysis of human erythrocytes; format: cell-based; conditions: concentration of peptide or ADC that lyses 50% of erythrocytes; washed human blood 0.5%, 37°C, 1 hr, OD415; melittin 2.5 µM = 100%, PBS = 0%; n = 3
Protocol: For hemolysis, whole human blood (1 ml; K2EDTA; Cambridge Bioscience) was washed in PBS then 0.5% added to an equal volume of peptides or ADCs in 96-well V-bottomed polypropylene plates and incubated at 37°C for 1 hr. Cells were pelleted at 1,000 × g for 10 min and the absorbance at OD415 measured. Positive (melittin, 2.5 µM, Merck Life Science) and negative (PBS) controls were normalised as 100 and 0% hemolysis, respectively. […]

HK-2 cells [5] = test: LDH release cytotoxicity; format: cell-based, human; conditions: n = 3; for LDH (EC50) 4 h: 2 × 10^4 cells/well, LDH release OD490, 4 h
Protocol: HK-2 cells (CRL-2190™, Americab Type Culutre Collection (ATCC)), a proximal renal tubule cell(7), and End1/E6E7 (CRL-2615™, ATCC) upper cervical epithelial cells(8) were cultured in Keratinocyte Serum Free Medium (Invitrogen, Life Technologies Ltd.) with human recombinant EGF (5 ng ml-1) and bovine pituitary extract (0.05 mg ml−1) at 37°C in 5% CO2. Cells were seeded in 96-well plates (Corning, Polystyrene) at a density of 2 × 10^4 cells/well 24 hr prior; Triton-X-100 (0.1%) and Digitonin (30 μg ml−1) were used as controls. Lactate dehydrogenase (LDH) release was measured using the Biovision kit; the OD490 was assessed in a SpectraMax M5 plate reader. […]

HK-2 cells [6] = test: MTT cell viability; format: cell-based, human; conditions: n = 3; for MTT (EC50) 4 h: MTT reduction OD570, 4 h
Protocol: HK-2 cells (CRL-2190™, Americab Type Culutre Collection (ATCC)), a proximal renal tubule cell(7), and End1/E6E7 (CRL-2615™, ATCC) upper cervical epithelial cells(8) were cultured in Keratinocyte Serum Free Medium (Invitrogen, Life Technologies Ltd.) with human recombinant EGF (5 ng ml-1) and bovine pituitary extract (0.05 mg ml−1) at 37°C in 5% CO2. […]
Cell viability was assessed by 3-(4,5-dimethylthiazol-2-yl)-2,5-diphenyl-2H-tetrazolium bromide (MTT) assay(9); 200 µl fresh cell media and 250 µg of MTT was added to cells. Plates were Incubated at 37 °C, 5% CO2 for 3 hr then 200 µl of DMSO was added to wells with 25 µl glycine buffer (0.1 M glycine, 0.1 M NaCl pH 10.5) and shaken at 1000 r.p.m. for 10 min. Absorbance was read at OD570 nm. Cell viability was calculated as (sample absorbance – cell free blank/media control absorbance) x100.

N. gonorrhoeae FA1090 [7] = test: microbe, parasite or virus in culture; conditions: Neisseria gonorrhoeae
Protocol: 37°C, in 5% CO2 then 10 μl aliquots plated onto GCB agar. The MIC was defined as the lowest concentration of an antimicrobial that prevented bacterial growth.
Determination of N. gonorrhoeae resistance to Oct-TriA1
Single colonies of N. gonorrhoeae FA1090 were inoculated into 2 mL of FB media supplemented with 1% Vitox (Oxoid) and grown overnight. After 24 hours, 240 µl of a 1/ 5,000 dilution of FA1090 in 2x FB was added to a 48-well plate containing 2-fold dilutions of either Oct-TriA1-c (final concentration, 12.5 µg/ml to 0.2 µg/ml) or ciprofloxacin (final concentration, 16.4 to 0.001 µg/ml) in a total volume of 480
µl. Plates were incubated at 37 °C, 5% CO2 with shaking (180 rpm). After 24 hours, ODA600 of each well […]
to fresh media containing all concentrations of antimicrobials for a total of 35 days. […]

CCCCCCCC(=O)N[C@@H](C(=O)N[C@H](CCN)C(=O)NCC(=O)N[C@H](CO)C(=O)N[C@H](Cc1c[nH]c2ccccc12)C(=O)N[C@@H](CO)C(=O)N[C@@H](CCN)C(=O)N[C@H](CCN)C(=O)N[C@@H](Cc1ccccc1)C(=O)N[C@@H](CCC(=O)O)C(=O)N[C@H](C(=O)N[C@@H](C(=O)N[C@@H](C)C(=O)O)[C@@H](C)CC)C(C)C)C(C)C [Oct-TriA1, reference compound]
MIC (N. gonorrhoeae FA1090 [1]): 0.2 µg/mL (≈ 0.132 µM)
MIC [2]: 0.1 µg/mL (≈ 0.0658 µM)
MIC [3]: 0.1 µg/mL (≈ 0.0658 µM)
MIC (N. gonorrhoeae MS11): 0.78 µg/mL (≈ 0.513 µM)
MIC (N. gonorrhoeae MS11ΔIgAP): 0.39 µg/mL (≈ 0.256 µM)
MIC (N. gonorrhoeae MS11ΔmtrE): 0.2 µg/mL (≈ 0.132 µM)
MIC (N. gonorrhoeae WHO F): 0.2 µg/mL (≈ 0.132 µM)
MIC (N. gonorrhoeae WHO G): 0.39 µg/mL (≈ 0.256 µM)
MIC (N. gonorrhoeae WHO K): 0.78 µg/mL (≈ 0.513 µM)
MIC (N. gonorrhoeae WHO L): 0.2 µg/mL (≈ 0.132 µM)
MIC (N. gonorrhoeae WHO M): 0.39 µg/mL (≈ 0.256 µM)
MIC (N. gonorrhoeae WHO N): 0.39 µg/mL (≈ 0.256 µM)
MIC (N. gonorrhoeae WHO O): 0.39 µg/mL (≈ 0.256 µM)
MIC (N. gonorrhoeae WHO P): 0.39 µg/mL (≈ 0.256 µM)
MIC [4]: 0.2 µg/mL (≈ 0.132 µM)
MIC ([4]; listed as Oct-Tri1): 0.78 µg/mL (≈ 0.513 µM)
Hemolysis (HC50) (human erythrocytes): 39.4 µg/mL
LDH (EC50) 4 h (HK-2 cells [5]): 23.19 µg/mL
LDH (EC50) 24 h (HK-2 cells [5]; LDH release OD490, 24 h): 14.14 µg/mL
LDH (EC50) 48 h (HK-2 cells [5]; LDH release OD490, 48 h): <0.1 µg/mL
MTT (EC50) 4 h (HK-2 cells [6]): 21.15 µg/mL
MTT (EC50) 24 h (HK-2 cells [6]; MTT reduction OD570, 24 h): 7.93 µg/mL
MTT (EC50) 48 h (HK-2 cells [6]; MTT reduction OD570, 48 h): 8.07 µg/mL

O=C(O)c1cn(C2CC2)c2cc(N3CCNCC3)c(F)cc2c1=O [ciprofloxacin, reference compound]
MIC (N. gonorrhoeae FA1090 [7]; FA1090, 24 h, read-out: MIC at start of resistance evolution): 0.002 µg/mL (≈ 0.00604 µM)
MIC (N. gonorrhoeae FA1090 [7]; FA1090, read-out: MIC after 35 d of resistance evolution): 0.26 µg/mL (≈ 0.785 µM)

CCCCCCCC(=O)N[C@@H](C(=O)N[C@H](CCN)C(=O)NCC(=O)N[C@H](CO)C(=O)N[C@H](Cc1c[nH]c2ccccc12)C(=O)N[C@@H](CO)C(=O)N[C@@H](CCN)C(=O)N[C@H](CCN)C(=O)N[C@@H](Cc1ccccc1)C(=O)N[C@@H](CCC(=O)O)C(=O)N[C@H](C(=O)N[C@@H](C(=O)N[C@@H](C)C(=O)NCCOCCOCC(=O)N[C@@H](CC(C)C)C(=O)N1CCC[C@H]1C(=O)N[C@@H](CCCNC(=N)N)C(=O)N1CCC[C@H]1C(=O)N1CCC[C@H]1C(=O)N[C@@H](C)C(=O)N1CCC[C@H]1C(=O)N[C@H](C(=O)N[C@@H](Cc1ccccc1)C(=O)N[C@@H](CO)C(=O)NCCOCCOCC(=O)N[C@@H](CS)C(N)=O)C(C)C)[C@@H](C)CC)C(C)C)C(C)C [cl-Oct-TriA1] (Octanoyl-[dV][dDab]G[dS][dW]S[Dab][dDab]FEV[d(aIle)]A[AEEA]LPRPPAPVFS[AEEA]C-NH2)
LDH (EC50) 4 h (HK-2 cells [5]): >400 µg/mL
MTT (EC50) 4 h (HK-2 cells [6]): 315.43 µg/mL
